Reference: ChEMBL document CHEMBL1201862, “PubChem BioAssay data set” (2004)
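Method: 48-hour compound exposure of cells in 96-well plates, five concentrations, linear interpolation of endpoints. GI50: concentration for 50% inhibition of growth.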 Active and inactive are the calls of the source. Cut-off read from the data, not from the text of the source: active = GI50 up to about 1.1 µM and inactive = higher.

What was measured:
Experiment in all cases: DTP human tumour cell line panel, 48 h
UO-31 = tested on: UO-31
CCRF-CEM = tested on: CCRF-CEM
NCI-H226 = tested on: NCI-H226
HOP-62 = tested on: HOP-62
SW-620 = tested on: SW-620
OVCAR-8 = tested on: OVCAR-8
Hs-578T = tested on: Hs-578T
SK-MEL-5 = tested on: SK-MEL-5
SF-539 = tested on: SF-539
U-251 = tested on: U-251
A549 = tested on: A549
SK-OV-3 = tested on: SK-OV-3
SK-MEL-28 = tested on: SK-MEL-28
HCT-116 = tested on: HCT-116
OVCAR-5 = tested on: OVCAR-5
K562 = tested on: K562
HT-29 = tested on: HT-29
T47D = tested on: T47D
MDA-MB-435 = tested on: MDA-MB-435
NCI-H460 = tested on: NCI-H460

Row | SMILES | GI50 (UO-31) | GI50 (CCRF-CEM) | GI50 (NCI-H226) | GI50 (HOP-62) | GI50 (SW-620) | GI50 (OVCAR-8) | GI50 (Hs-578T) | GI50 (SK-MEL-5) | GI50 (SF-539) | GI50 (U-251) | GI50 (A549) | GI50 (SK-OV-3) | GI50 (SK-MEL-28) | GI50 (HCT-116) | GI50 (OVCAR-5) | GI50 (K562) | GI50 (HT-29) | GI50 (T47D) | GI50 (MDA-MB-435) | GI50 (NCI-H460)
1 | COc1ccc2c(c1)CCC(CN1CCN(CCOC(c3ccccc3)c3ccccc3)CC1)C2O (stereo unspecified) | 15.4 µM (inactive) | 16.3 µM (inactive) | 16.3 µM (inactive) | 19 µM (inactive) | 20 µM (inactive) | 14.5 µM (inactive) | 19.3 µM (inactive) | 8.3 µM (inactive) | 11.3 µM (inactive) | 14.8 µM (inactive) | 18.2 µM (inactive) | 17.9 µM (inactive) | 16.5 µM (inactive) | 12.2 µM (inactive) | 16.6 µM (inactive) | 6.58 µM (inactive) | 5.04 µM (inactive) | 16.1 µM (inactive) | 16.6 µM (inactive) | 16.7 µM (inactive)
2 | OC1CSCCSCCCSCCSC1 | > 100 µM (inactive) |  | > 100 µM (inactive) | > 100 µM (inactive) | > 100 µM (inactive) | > 100 µM (inactive) | > 100 µM (inactive) | > 100 µM (inactive) | > 100 µM (inactive) | > 100 µM (inactive) | > 100 µM (inactive) | > 100 µM (inactive) | > 100 µM (inactive) | > 100 µM (inactive) | > 100 µM (inactive) | > 100 µM (inactive) | > 100 µM (inactive) | > 100 µM (inactive) | > 100 µM (inactive) | > 100 µM (inactive)
3 | COc1ccc(/C=N/n2cnc3[nH]c(C)c(Cc4ccccc4)c3c2=N)cc1 | > 100 µM (inactive) | 54.3 µM (inactive) | > 100 µM (inactive) | > 100 µM (inactive) | 57.1 µM (inactive) | 90.6 µM (inactive) | 80.9 µM (inactive) | > 100 µM (inactive) |  | 86.1 µM (inactive) | 89.5 µM (inactive) | > 100 µM (inactive) | > 100 µM (inactive) | > 100 µM (inactive) | > 100 µM (inactive) |  | > 100 µM (inactive) | 30.1 µM (inactive) | > 100 µM (inactive) | 81.7 µM (inactive)
4 | Cc1ccc(-c2c(C#N)c(N)nc3c2CCS(=O)(=O)c2ccccc2-3)cc1 | 90.8 µM (inactive) |  | 66.1 µM (inactive) |  | > 100 µM (inactive) | 41 µM (inactive) | 58.1 µM (inactive) | 66.7 µM (inactive) |  | 68.2 µM (inactive) | > 100 µM (inactive) |  | 72.4 µM (inactive) | > 100 µM (inactive) |  | > 100 µM (inactive) | > 100 µM (inactive) | 55.5 µM (inactive) | > 100 µM (inactive) | > 100 µM (inactive)
5 | O=P(O)(O)CN1CCN(CP(=O)(O)O)CCN(CP(=O)(O)O)CCN(CP(=O)(O)O)CC1 | > 100 µM (inactive) | 44.9 µM (inactive) | > 100 µM (inactive) | > 100 µM (inactive) | 42.6 µM (inactive) | 77.6 µM (inactive) | > 100 µM (inactive) | > 10 µM (inactive) | 70.5 µM (inactive) | 45.6 µM (inactive) | 58.5 µM (inactive) |  |  | 36.4 µM (inactive) | 73.8 µM (inactive) | 31.8 µM (inactive) | 69 µM (inactive) | > 100 µM (inactive) | > 100 µM (inactive) | 29 µM (inactive)
6 | COc1cccc(C2SC(=N)Nc3c2c(C)nn3C(=O)Cc2ccccc2)c1 (stereo unspecified) | > 100 µM (inactive) | > 100 µM (inactive) | > 100 µM (inactive) | > 100 µM (inactive) | > 100 µM (inactive) | > 100 µM (inactive) | > 100 µM (inactive) | > 100 µM (inactive) | > 100 µM (inactive) |  | > 100 µM (inactive) | > 100 µM (inactive) | > 100 µM (inactive) | > 100 µM (inactive) |  | > 100 µM (inactive) | > 100 µM (inactive) | > 100 µM (inactive) | > 100 µM (inactive) | > 100 µM (inactive)
7 | CC(=O)N1OC(C)CC1Nc1ccc(Br)cc1 (stereo unspecified) | 0.0955 µM (active) | 0.452 µM (active) | 4.39 µM (inactive) | 0.366 µM (active) | 0.76 µM (active) | > 100 µM (inactive) | > 100 µM (inactive) | 6.31 µM (inactive) | 5.77 µM (inactive) | 1.99 µM (inactive) | 9.12 µM (inactive) | > 100 µM (inactive) |  | 4.03 µM (inactive) | 96.2 µM (inactive) | 0.345 µM (active) | 75.9 µM (inactive) | 1.34 µM (inactive) | 0.577 µM (active) | 8.04 µM (inactive)
8 | O=Cc1cccc2ccc3ccccc3c12 | 24 µM (inactive) |  | 24.7 µM (inactive) | 15.9 µM (inactive) | 10.4 µM (inactive) | 24.2 µM (inactive) | 13.5 µM (inactive) | 16.9 µM (inactive) | 5.86 µM (inactive) | 5.93 µM (inactive) | 24.3 µM (inactive) | 16.5 µM (inactive) |  | 9.18 µM (inactive) |  |  | 12.2 µM (inactive) | 15 µM (inactive) | 18.4 µM (inactive) | 21.4 µM (inactive)
9 | N/C(S)=N/N=C/c1ccc(O)cn1 | 10.6 µM (inactive) | 1.78 µM (inactive) | 24.2 µM (inactive) | 4.59 µM (inactive) | 15.4 µM (inactive) | 3.51 µM (inactive) | 316 µM (inactive) | 5.65 µM (inactive) | 2.26 µM (inactive) | 6.18 µM (inactive) | 47.6 µM (inactive) |  | 30.1 µM (inactive) | 10.9 µM (inactive) | 45 µM (inactive) | 4.99 µM (inactive) | 22.3 µM (inactive) | 4.72 µM (inactive) | 10.5 µM (inactive) | 18.5 µM (inactive)
10 | COc1cc(OC)c2nc(C)c3c(c2c1)OCC3 | > 100 µM (inactive) | > 100 µM (inactive) | > 100 µM (inactive) | 37.7 µM (inactive) | > 100 µM (inactive) | > 100 µM (inactive) | 47.4 µM (inactive) | > 100 µM (inactive) | 86.7 µM (inactive) | 35 µM (inactive) | > 100 µM (inactive) |  | > 100 µM (inactive) | 80.7 µM (inactive) | > 100 µM (inactive) | > 100 µM (inactive) | > 100 µM (inactive) | > 100 µM (inactive) | > 100 µM (inactive) | > 100 µM (inactive)
11 | Cc1ccc(S(=O)(=O)NCCSCCNS(=O)(=O)c2ccc(C)cc2)cc1 | > 100 µM (inactive) | > 100 µM (inactive) | > 100 µM (inactive) |  | > 100 µM (inactive) | > 100 µM (inactive) | > 100 µM (inactive) | > 100 µM (inactive) |  | > 100 µM (inactive) | > 100 µM (inactive) | > 100 µM (inactive) | > 100 µM (inactive) | > 100 µM (inactive) |  | > 100 µM (inactive) | > 100 µM (inactive) | > 100 µM (inactive) | > 100 µM (inactive) | > 100 µM (inactive)
12 | CC1(c2nc3ccccc3[nH]2)CCC(CO)C(C)(C)O1 (stereo unspecified) | 98.6 µM (inactive) | > 100 µM (inactive) | > 100 µM (inactive) | > 100 µM (inactive) | > 100 µM (inactive) | > 100 µM (inactive) | > 100 µM (inactive) | > 100 µM (inactive) | > 100 µM (inactive) | > 100 µM (inactive) | > 100 µM (inactive) | > 100 µM (inactive) | > 100 µM (inactive) | > 100 µM (inactive) | > 100 µM (inactive) | > 100 µM (inactive) | > 100 µM (inactive) | > 100 µM (inactive) | > 100 µM (inactive) | 
13 | CCCCOC(=O)NC(Nc1ccc(S(N)(=O)=O)cc1)(C(F)(F)F)C(F)(F)F | 79.8 µM (inactive) | > 100 µM (inactive) | > 100 µM (inactive) | > 100 µM (inactive) |  |  | > 100 µM (inactive) |  | > 100 µM (inactive) | > 100 µM (inactive) |  | > 100 µM (inactive) | > 100 µM (inactive) | > 100 µM (inactive) | > 100 µM (inactive) | > 100 µM (inactive) | > 100 µM (inactive) | > 100 µM (inactive) | > 100 µM (inactive) | > 100 µM (inactive)
14 | COc1cccc(Nc2nc(-c3cccs3)nc3ccc(Br)cc23)c1 | > 100 µM (inactive) | 0.0101 µM (active) | 78 µM (inactive) | 20 µM (inactive) | > 100 µM (inactive) | 39.2 µM (inactive) | > 100 µM (inactive) | 55.5 µM (inactive) | 94.2 µM (inactive) | 35.5 µM (inactive) | 76.4 µM (inactive) | 70 µM (inactive) |  | 50.5 µM (inactive) | 95.3 µM (inactive) | > 100 µM (inactive) | > 100 µM (inactive) | > 100 µM (inactive) | 76 µM (inactive) | 25.6 µM (inactive)
15 | COc1ccc(N2C(=O)c3c4c(c5c([nH]c6ncccc65)c3C2=O)CCC(C(C)(C)C)C4)cc1 (stereo unspecified) | > 100 µM (inactive) | > 100 µM (inactive) | > 100 µM (inactive) | 38.6 µM (inactive) | > 100 µM (inactive) | > 100 µM (inactive) | 28.8 µM (inactive) | > 100 µM (inactive) | 41.9 µM (inactive) | 31 µM (inactive) | > 100 µM (inactive) | 40.6 µM (inactive) | > 100 µM (inactive) | > 100 µM (inactive) |  | > 10 µM (inactive) | > 100 µM (inactive) | > 100 µM (inactive) | > 100 µM (inactive) | > 100 µM (inactive)
